Results published in the supplement of paper PMC9663587.

Key:
[1] = compound: CCN1CCN(Cc2ccc(Nc3ncc(F)c(-c4cc(F)c5nc(C)n(C(C)C)c5c4)n3)nc2)CC1; assay: GR value, 72 h; higher = faster growth (1 = untreated, <0 = killing);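 note: breast cancer and non-malignant breast epithelial lines, nine half-log doses, viable cells counted by Hoechst and LIVE/DEAD dye imaging versus time-zero plates and DMSO controls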
[2] = compound: CN(C)C/C=C/C(=O)Nc1ccc(C(=O)Nc2cccc(Nc3ncc(Cl)c(-c4c[nH]c5ccccc45)n3)c2)cc1 [THZ1]; assay: as above
[3] = compound: CCc1cnn2c(NCc3ccc[n+]([O-])c3)cc(N3CCCC[C@H]3CCO)nc12; assay: as above
[4] = compound: CC(=O)c1c(C)c2cnc(Nc3ccc(N4CCN(CCOCCOCCOCCNC(=O)COc5cccc6c5C(=O)N(C5CCC(=O)NC5=O)C6=O)CC4)cn3)nc2n(C2CCCC2)c1=O [BSJ-03-123]; assay: as above
[5] = compound: C=CC(=O)Nc1ccc(C(=O)Nc2[nH]nc3c2CN(C(=O)N[C@H](CN(C)C)c2ccccc2)C3(C)C)cc1 [YKL-5-124]; assay: as above
[6] = compound: CN(C)C/C=C/C(=O)Nc1ccc(C(=O)N2CCC[C@@H](Nc3ncc(Cl)c(-c4c[nH]c5ccccc45)n3)C2)cc1 [THZ531]; assay: as above
[7] = compound: T1, CN1CC[C@H](c2c(O)cc(O)c3c(=O)cc(-c4ccccc4Cl)oc23)[C@H](O)C1 [Flavopiridol]; assay: as above
[8] = compound: CCOc1cc2ncc(C#N)c(Nc3ccc(OCc4ccccn4)c(Cl)c3)c2cc1NC(=O)/C=C/CN(C)C [Neratinib/HKI272]; assay: as above
[9] = compound: CC(=O)c1c(C)c2cnc(Nc3ccc(N4CCNCC4)cn3)nc2n(C2CCCC2)c1=O; assay: as above
[10] = compound: CN(C)C(=O)c1cc2cnc(Nc3ccc(N4CCNCC4)cn3)nc2n1C1CCCC1 [LEE011/Ribociclib]; assay: as above
[11] = compound: Cc1nc(-c2cn3c(n2)-c2ccc(-c4cnn(C(C)(C)C(N)=O)c4)cc2OCC3)n(C(C)C)n1 [Taselisib/GDC0032]
[12] = compound: CN(C)CC[C@H](CSc1ccccc1)Nc1ccc(S(=O)(=O)NC(=O)c2ccc(N3CCN(Cc4ccccc4-c4ccc(Cl)cc4)CC3)cc2)cc1[N+](=O)[O-] [ABT-737]
[13] = compound: CN1CCN(CCOc2cc(OC3CCOCC3)c3c(Nc4c(Cl)ccc5c4OCO5)ncnc3c2)CC1 [Saracatinib/AZD0530]
[14] = compound: T1, Flavopiridol
[15] = compound: CO[C@@H](C)Cn1c(=O)n(C)c2cnc3ccc(-c4cncc(C(C)(C)O)c4)cc3c21
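Throughout, for GR50, 72 h: breast cancer and non-malignant breast epithelial cell lines, Deep Dye Drop or Dye Drop imaging, nine half-log doses, GR normalized to time-zero plates and DMSO-only controls.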

184A1 showed a GR value ([1]; 0.001 µM) of 0.939 GR, a GR value ([1]; 0.003162 µM) of 0.858 GR and a GR value ([1]; 0.01 µM) of 0.69 GR. For the same cell line, the GR value ([1]; 0.03162 µM) was 0.413 GR, the GR value ([1]; 0.1 µM) was 0.267 GR and the GR value ([1]; 0.3162 µM) was 0.13 GR. For the same cell line, the GR value ([1]; 1 µM) was 0.0708 GR, the GR value ([1]; 3.162 µM) was 0.0774 GR and the GR value ([1]; 10 µM) was -0.105 GR. For the same cell line, the GR value ([2]; 0.0001 µM) was 1.02 GR, the GR value ([2]; 0.0003162 µM) was 1 GR and the GR value ([2]; 0.001 µM) was 1.01 GR. The GR value ([2]; 0.003162 µM) was 0.822 GR, the GR value ([2]; 0.01 µM) was 0.39 GR and the GR value ([2]; 0.03162 µM) was -0.094 GR. It also gave a GR value ([2]; 0.1 µM) of -0.2 GR, a GR value ([2]; 0.3162 µM) of -0.209 GR and a GR value ([3]; 0.0001 µM) of 1.04 GR. The GR value ([3]; 0.0003162 µM) was 1.05 GR, the GR value ([3]; 0.001 µM) was 1.04 GR and the GR value ([3]; 0.003162 µM) was 0.865 GR. It also gave a GR value ([3]; 0.01 µM) of 0.401 GR, a GR value ([3]; 0.03162 µM) of -0.275 GR and a GR value ([3]; 0.1 µM) of -0.222 GR. The GR value ([3]; 0.3162 µM) was -0.306 GR, the GR value ([3]; 1 µM) was -0.346 GR and the GR value ([4]; 0.001 µM) was 0.716 GR. The GR value ([4]; 0.003162 µM) was 0.636 GR, the GR value ([4]; 0.01 µM) was 0.521 GR and the GR value ([4]; 0.03162 µM) was 0.296 GR. It also gave a GR value ([4]; 0.1 µM) of 0.243 GR, a GR value ([4]; 0.3162 µM) of 0.145 GR and a GR value ([4]; 1 µM) of 0.114 GR. The GR value ([4]; 3.162 µM) was 0.101 GR, the GR value ([4]; 10 µM) was -0.139 GR and the GR value ([5]; 0.001 µM) was 0.287 GR. It also gave a GR value ([5]; 0.003162 µM) of 0.204 GR, a GR value ([5]; 0.01 µM) of 0.116 GR and a GR value ([5]; 0.03162 µM) of 0.07 GR. It also gave a GR value ([5]; 0.1 µM) of 0.0439 GR, a GR value ([5]; 0.3162 µM) of 0.0314 GR and a GR value ([5]; 1 µM) of 0.0278 GR. For the same cell line, the GR value ([5]; 3.162 µM) was -0.0126 GR, the GR value ([5]; 10 µM) was -0.0798 GR and the GR value ([6]; 0.0001 µM) was 1.01 GR. The GR value ([6]; 0.0003162 µM) was 0.964 GR, the GR value ([6]; 0.001 µM) was 0.898 GR and the GR value ([6]; 0.003162 µM) was 0.954 GR. For the same cell line, the GR value ([6]; 0.01 µM) was 0.931 GR, the GR value ([6]; 0.03162 µM) was 0.968 GR and the GR value ([6]; 0.1 µM) was 0.814 GR. The GR value ([6]; 0.3162 µM) was 0.438 GR, the GR value ([6]; 1 µM) was -0.377 GR and the GR value ([7]; 0.0001 µM) was 1.04 GR. For the same cell line, the GR value ([7]; 0.0003162 µM) was 1 GR, the GR value ([7]; 0.001 µM) was 1.01 GR and the GR value ([7]; 0.003162 µM) was 0.931 GR. For the same cell line, the GR value ([7]; 0.01 µM) was 0.838 GR, the GR value ([7]; 0.03162 µM) was 0.614 GR and the GR value ([7]; 0.1 µM) was 0.0558 GR. The GR value ([7]; 0.3162 µM) was -0.172 GR, the GR value ([7]; 1 µM) was -0.307 GR and the GR value ([8]; 0.0003162 µM) was 0.998 GR. For the same cell line, the GR value ([8]; 0.001 µM) was 1 GR, the GR value ([8]; 0.003162 µM) was 1.02 GR and the GR value ([8]; 0.01 µM) was 0.853 GR. For the same cell line, the GR value ([8]; 0.03162 µM) was 0.468 GR, the GR value ([8]; 0.1 µM) was 0.287 GR and the GR value ([8]; 0.3162 µM) was 0.219 GR. It also gave a GR value ([8]; 1 µM) of 0.198 GR, a GR value ([8]; 3.162 µM) of 0.166 GR and a GR value ([9]; 0.0003162 µM) of 1.04 GR. The GR value ([9]; 0.001 µM) was 0.968 GR, the GR value ([9]; 0.003162 µM) was 0.963 GR and the GR value ([9]; 0.01 µM) was 0.848 GR. The GR value ([9]; 0.03162 µM) was 0.664 GR, the GR value ([9]; 0.1 µM) was 0.465 GR and the GR value ([9]; 0.3162 µM) was 0.324 GR. For the same cell line, the GR value ([9]; 1 µM) was 0.191 GR, the GR value ([9]; 3.162 µM) was 0.128 GR and the GR value ([10]; 0.001 µM) was 0.846 GR. For the same cell line, the GR value ([10]; 0.003162 µM) was 0.792 GR, the GR value ([10]; 0.01 µM) was 0.664 GR and the GR value ([10]; 0.03162 µM) was 0.633 GR. For the same cell line, the GR value ([10]; 0.1 µM) was 0.549 GR, the GR value ([10]; 0.3162 µM) was 0.552 GR and the GR value ([10]; 1 µM) was 0.446 GR. For the same cell line, the GR value ([10]; 3.162 µM) was 0.306 GR, the GR value ([10]; 10 µM) was 0.11 GR and the “GR50, 72 h” value [11] was 0.192 µM. The “GR50, 72 h” value [12] was 3.93 µM, the “GR50, 72 h” value [13] was 4.62 µM and the “GR50, 72 h” value [14] was 0.0383 µM. The “GR50, 72 h” value [15] was 0.00147 µM.
